Values after ≈ are worked out from the molar mass of the structure shown. Like-named read-outs stand apart in the source and are kept apart here.
Key:
[1] = Lymphocyte Viability Assay (LCV); type: cell-based, murine; details: mouse, splenocytes, read-out: % LCV (percentage of positive control)
Method: II. Lymphocyte Viability Assay
1. Compounds were similarly tested in parallel with the MLR to determine their toxic effects on lymphoid cells using the lymphocyte viability assay (LCV).
(§1) 2. Serial, log10 dilutions of the pure compound were made in absolute ethanol, and 10 μl of each dilution was added to wells of microtiter test plates, and allowed to dry.
3. Murine splenocyte suspensions were prepared from BALB/c mice. […] The cell concentrations were adjusted to 2.5×10^6 cells/ml.
4. A volume of 0.2 ml of the splenocyte suspension was added to replicate test wells. Positive control wells received splenocyte suspensions in the absence of the test compounds.
5. Plates were incubated at 37° C. for 86 hours. At the end of the incubation period, a volume of 75 μl of a 2.0 mg/ml solution of MTT was added to each well, and the plates were returned to the incubator for an additional 5 hours.
6. The supernatants from each microwell were then removed, and a volume of 200 μl of isopropanol was added and the contents mixed.
7. Values were obtained by comparing the optical densities (determined at 570 and 650 nm) of wells containing the test compounds with those of wells containing cells and medium only (positive control). The results are expressed as a percentage of the positive control.
8. Replicate counts were averaged, and the data reported as a percentage of the positive control. An LCV value of less than 60% of the positive control is an indication of cytotoxicity of the test compounds for lymphoid cells.

[2] = tested on: graft vs host reaction in CB6F1 mice grafted with BALB/c splenocytes; test: Graft vs. Host (GVHR) in vivo activity; details: for % Suppression / Stim. Index (spleen index): i.p.
Method: III. Graft vs. Host (GVHR) In Vivo Activity
1. Donor mice (BALB/c) were sacrificed, spleens removed, and spleen cell suspensions prepared in tissue culture medium.
2. The above splenocyte suspension was adjusted to 10.0×10^7 cells/ml.
3. Mice were treated with varying dosages of the test compound. […] Treatment consisted of intraperitoneal injections, daily for 7 days. Dosages were calculated on a mg per kg body weight basis.
4. On day 1 of the first treatment regimen, recipient mice (CB6) were injected intraperitoneally with 0.50 ml (50.0×10^6) of the donor (BALB/c) splenocyte suspension.
5. Controls consisted of the following:
POS--mice receiving BALB/c splenocytes (Positive Control)
SYN--mice receiving CB6 splenocytes (Syngeneic Control)
CYP--mice receiving Cyclophosphamide (100 mg/kg) and BALB/c splenocytes
6. At the end of five days, recipient mice were sacrificed, weighed, and spleens removed and weighed.
7. A spleen index of 1.0 was assigned to the mean spleen weights (adjusted to body weight) of the SYN controls. The spleen index of treated mice was determined by comparing the spleen weights of those mice with that of the […]. […] As a general rule, a spleen index of less than the positive control is indicative of an immunosuppressive (ID) compound.
^a CB6F1 mice (5 mice per group) were grafted with 5 ×
10^7 BALB/c spelnocytes, i.p. on Day 0. Groups were injected, ii.p.,
with drug (or vehicle) on Days 1-6. Positive designates grafted mice
receiving vehicle alone.
^b Number of surviving mice at end of experiment.
(Stimulation Index of Syngeneic group (CB6F1 ->CB6F1) = 100

P388 cells = test: Antiproliferative effects against P388 cells (antitumor, MTT); type: cell-based; details: Mus musculus, P388, 48 hour exposure
Method: IV. Antitumor Methodology
To assess the antiproliferative effects against P388 cells, 200 μl cultures (96-well tissue culture plates, Nunc, Denmark) were established at 1×10^5 cells/ml in drug-free medium or medium containing the pure compounds/crude extracts at a final dilution or 1:500 and at various concentrations. Solvent for all dilutions was methanol, which was removed from plates under vacuum. All experimental cultures were initiated in media containing Gentamicin sulfate (50 μg/ml; Schering Corporation, Kenilworth, NJ).
To quantitate the effects of pure compounds/crude extracts on cell proliferation, 75 μl of warm growth medium containing 5 mg/ml MTT was added to each well, cultures were returned to the incubator, and were left undisturbed for 90 minutes. To spectrophotometrically quantitate formation of reduced formazan, plates were centrifuged (900×g, 5 minutes), culture fluids removed by aspiration, and 200 μl of acidified isopropanol (2 ml concentrated HCl/liter isopropanol) added per well. The absorbance of the resulting solutions were measured at 570 nm with a plate reader (MR700 Microplate Reader, Dynatech Laboratories, Chantilly, VA).

[3] = tested on: murine splenocyte suspensions (BALB/c and C57BL/6J mice); test: Mixed Lymphocyte Reaction (MLR); type: cell-based; details: Mus musculus, Splenocyte, read-out: % MLR (percentage of positive control)
Method: I. Mixed Lymphocyte Reaction
1. Murine splenocyte suspensions were prepared separately from BALB/c and C57BL/6J mice. […] The cell concentrations were adjusted to 2.5×10^6 cells/ml. Aliquots of each cell population were removed to separate tubes, and the remaining two cell suspensions combined to one tube.
as §1
3. A volume of 0.2 ml of the combined splenocyte suspensions was added to triplicate test wells. Positive control wells received combined splenocyte suspensions in the absence of the test compounds. Negative control wells consisted of separate (not mixed) splenocyte suspensions cultured in the absence of the test compounds.
4. Plates were incubated in 5% CO2 at 37° C. for 86 hours.
5. A volume of 0.05 ml of ^3 H-thymidine (20 μCi/ml) was added to each well, and the plates were incubated in 5% CO2 at 37° C. for an additional 5 hours.
6. The contents of each well of the microtiter plates were harvested onto glass fiber filter strips, and the resulting filter discs placed in scintillation vials to which 2.0 ml of scintillation fluid was added.
7. The amount of incorporated ^3 H-thymidine was determined by counting the vials in a liquid scintillation counter.
8. Triplicate counts were averaged, and the data reported as a percentage of the positive control.

SMILES: C#CC(O)/C=C/CCCCCCCCCCCCCCC (stereo not shown) [CH3 (CH2)14 CH=CH--CHOH--C≡CH]
- viability ([1]; 0.05 μg/ml): 63%
- viability ([1]; 0.2 μg/ml): 42%
- viability ([1]; 0.8 μg/ml): 20%
- viability ([1]; 3.1 μg/ml): 19%
- viability ([1]; 12.5 μg/ml): 19%
- viability ([1]; 50 μg/ml): 11%
- % Suppression ([2]; 25.0 mg/kg): 45%
- Stim. Index (spleen index) ([2]; 25.0 mg/kg): 1.63 ± .25
- % Suppression ([2]; 50.0 mg/kg): 25%
- Stim. Index (spleen index) ([2]; 50.0 mg/kg): 1.86 ± .18
- % Suppression ([2]; 100 mg/kg): 0%
- Stim. Index (spleen index) ([2]; 100 mg/kg): 2.35 ± .15
- % Suppression ([2]; 150.0 mg/kg): 81%
- Stim. Index (spleen index) ([2]; 150.0 mg/kg): 1.22 ± .03
- suppression of the GVHR (splenomegaly response), in words ([2]; mouse, in vivo): could mediate the suppression of the GVHR
- IC50 (P388 cells): 9.4 µg/mL (≈ 32.1 µM)
- activity at 0.05 µg/mL ([3]; 0.05 μg/ml): 0%
- activity at 0.2 µg/mL ([3]; 0.2 μg/ml): 0%
- activity at 0.8 µg/mL ([3]; 0.8 μg/ml): 0%
- activity at 3.1 µg/mL ([3]; 3.1 μg/ml): 0%
- activity at 12.5 µg/mL ([3]; 12.5 μg/ml): 0%
- activity at 50 µg/mL ([3]; 50 μg/ml): 0%
